In PubChem BioAssay (NCI):
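Five concentrations, 48 hours, 96-well plates. TGI is the concentration that stops growth completely.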

Tests used:
Assay in all cases: NCI-60 cell line screen, 48 h
786-0 renal = tested on: 786-0 renal
A498 renal = tested on: A498 renal
A549 NSCLC = tested on: A549 NSCLC
ACHN renal = tested on: ACHN renal
BT-549 breast = tested on: BT-549 breast
CAKI-1 renal = tested on: CAKI-1 renal
CCRF-CEM leukemia = tested on: CCRF-CEM leukemia
COLO 205 colon = tested on: COLO 205 colon
DU-145 prostate = tested on: DU-145 prostate
EKVX NSCLC = tested on: EKVX NSCLC
HCT-116 colon = tested on: HCT-116 colon
HCT-15 colon = tested on: HCT-15 colon
HL-60(TB) leukemia = tested on: HL-60(TB) leukemia
HS 578T breast = tested on: HS 578T breast
HT29 colon = tested on: HT29 colon
IGROV1 ovarian = tested on: IGROV1 ovarian
K-562 leukemia = tested on: K-562 leukemia
KM12 colon = tested on: KM12 colon
M14 melanoma = tested on: M14 melanoma
MALME-3M melanoma = tested on: MALME-3M melanoma
MDA-MB-231 breast = tested on: MDA-MB-231 breast
MDA-MB-435 = tested on: MDA-MB-435
MDA-N = tested on: MDA-N
MOLT-4 leukemia = tested on: MOLT-4 leukemia
NCI-H226 lung = tested on: NCI-H226 lung
NCI-H23 lung = tested on: NCI-H23 lung
NCI-H460 lung = tested on: NCI-H460 lung
NCI-H522 lung = tested on: NCI-H522 lung
NCI/ADR-RES ovarian = tested on: NCI/ADR-RES ovarian
OVCAR-4 ovarian = tested on: OVCAR-4 ovarian
OVCAR-5 ovarian = tested on: OVCAR-5 ovarian
OVCAR-8 ovarian = tested on: OVCAR-8 ovarian
PC-3 prostate = tested on: PC-3 prostate
RPMI-8226 leukemia = tested on: RPMI-8226 leukemia
RXF 393 renal = tested on: RXF 393 renal
SF-268 CNS = tested on: SF-268 CNS
SF-295 CNS = tested on: SF-295 CNS
SF-539 CNS = tested on: SF-539 CNS
SK-MEL-2 melanoma = tested on: SK-MEL-2 melanoma
SK-MEL-28 melanoma = tested on: SK-MEL-28 melanoma
SK-MEL-5 melanoma = tested on: SK-MEL-5 melanoma
SK-OV-3 ovarian = tested on: SK-OV-3 ovarian
SN12C renal = tested on: SN12C renal
SNB-19 CNS = tested on: SNB-19 CNS
SNB-75 CNS = tested on: SNB-75 CNS
SR leukemia = tested on: SR leukemia
SW-620 colon = tested on: SW-620 colon
T-47D breast = tested on: T-47D breast
TK-10 renal = tested on: TK-10 renal
U251 CNS = tested on: U251 CNS
UACC-257 melanoma = tested on: UACC-257 melanoma
UACC-62 melanoma = tested on: UACC-62 melanoma
UO-31 renal = tested on: UO-31 renal
HCC-2998 colon = tested on: HCC-2998 colon
HOP-62 NSCLC = tested on: HOP-62 NSCLC
HOP-92 NSCLC = tested on: HOP-92 NSCLC
LOX IMVI melanoma = tested on: LOX IMVI melanoma
MCF7 breast = tested on: MCF7 breast
OVCAR-3 ovarian = tested on: OVCAR-3 ovarian

N#Cc1c(-c2ccccc2)/c(=C\O)c(=O)n2c1nc1ccccc12
TGI (786-0 renal): > 100 µM | TGI (A498 renal): > 100 µM | TGI (A549 NSCLC): > 100 µM | TGI (ACHN renal): > 100 µM | TGI (BT-549 breast): > 100 µM | TGI (CAKI-1 renal): > 100 µM | TGI (CCRF-CEM leukemia): > 100 µM | TGI (COLO 205 colon): > 100 µM | TGI (DU-145 prostate): > 100 µM | TGI (EKVX NSCLC): > 100 µM | TGI (HCT-116 colon): > 100 µM | TGI (HCT-15 colon): > 100 µM | TGI (HL-60(TB) leukemia): > 100 µM | TGI (HS 578T breast): 91.8 µM | TGI (HT29 colon): > 100 µM | TGI (IGROV1 ovarian): > 100 µM | TGI (K-562 leukemia): > 100 µM | TGI (KM12 colon): > 100 µM | TGI (M14 melanoma): > 100 µM | TGI (MALME-3M melanoma): > 100 µM | TGI (MDA-MB-231 breast): > 100 µM | TGI (MDA-MB-435): > 100 µM | TGI (MDA-N): > 100 µM | TGI (MOLT-4 leukemia): > 100 µM | TGI (NCI-H226 lung): > 100 µM | TGI (NCI-H23 lung): > 100 µM | TGI (NCI-H460 lung): > 100 µM | TGI (NCI-H522 lung): > 100 µM | TGI (NCI/ADR-RES ovarian): > 100 µM | TGI (OVCAR-4 ovarian): > 100 µM | TGI (OVCAR-5 ovarian): > 100 µM | TGI (OVCAR-8 ovarian): > 100 µM | TGI (PC-3 prostate): > 100 µM | TGI (RPMI-8226 leukemia): > 100 µM | TGI (RXF 393 renal): > 100 µM | TGI (SF-268 CNS): > 100 µM | TGI (SF-295 CNS): > 100 µM | TGI (SF-539 CNS): > 100 µM | TGI (SK-MEL-2 melanoma): > 100 µM | TGI (SK-MEL-28 melanoma): > 100 µM | TGI (SK-MEL-5 melanoma): > 100 µM | TGI (SK-OV-3 ovarian): > 100 µM | TGI (SN12C renal): > 100 µM | TGI (SNB-19 CNS): > 100 µM | TGI (SNB-75 CNS): 91.9 µM | TGI (SR leukemia): > 100 µM | TGI (SW-620 colon): > 100 µM | TGI (T-47D breast): > 100 µM | TGI (TK-10 renal): > 100 µM | TGI (U251 CNS): > 100 µM | TGI (UACC-257 melanoma): > 100 µM | TGI (UACC-62 melanoma): > 100 µM | TGI (UO-31 renal): > 100 µM

Cc1nn(C(=O)c2ccc(Cl)cc2)c2c1C(c1ccc([N+](=O)[O-])cc1)SC(N)=N2 (stereo not given)
TGI (786-0 renal): > 10 µM | TGI (A549 NSCLC): > 10 µM | TGI (ACHN renal): > 10 µM | TGI (BT-549 breast): > 10 µM | TGI (CAKI-1 renal): > 10 µM | TGI (CCRF-CEM leukemia): > 10 µM | TGI (COLO 205 colon): > 10 µM | TGI (DU-145 prostate): > 10 µM | TGI (EKVX NSCLC): > 10 µM | TGI (HCC-2998 colon): > 10 µM | TGI (HCT-116 colon): > 10 µM | TGI (HCT-15 colon): > 10 µM | TGI (HL-60(TB) leukemia): > 10 µM | TGI (HOP-62 NSCLC): > 10 µM | TGI (HOP-92 NSCLC): > 10 µM | TGI (HS 578T breast): > 10 µM | TGI (HT29 colon): > 10 µM | TGI (IGROV1 ovarian): > 10 µM | TGI (K-562 leukemia): > 10 µM | TGI (KM12 colon): > 10 µM | TGI (LOX IMVI melanoma): > 10 µM | TGI (M14 melanoma): > 10 µM | TGI (MALME-3M melanoma): > 10 µM | TGI (MCF7 breast): > 10 µM | TGI (MDA-MB-231 breast): > 10 µM | TGI (MDA-MB-435): > 10 µM | TGI (MDA-N): > 10 µM | TGI (MOLT-4 leukemia): > 10 µM | TGI (NCI-H226 lung): > 10 µM | TGI (NCI-H23 lung): > 10 µM | TGI (NCI-H460 lung): > 10 µM | TGI (NCI-H522 lung): > 10 µM | TGI (NCI/ADR-RES ovarian): > 10 µM | TGI (OVCAR-3 ovarian): > 10 µM | TGI (OVCAR-4 ovarian): > 10 µM | TGI (OVCAR-5 ovarian): > 10 µM | TGI (OVCAR-8 ovarian): > 10 µM | TGI (PC-3 prostate): > 10 µM | TGI (RPMI-8226 leukemia): > 10 µM | TGI (RXF 393 renal): > 10 µM | TGI (SF-268 CNS): > 10 µM | TGI (SF-295 CNS): > 10 µM | TGI (SF-539 CNS): > 10 µM | TGI (SK-MEL-2 melanoma): > 10 µM | TGI (SK-MEL-28 melanoma): > 10 µM | TGI (SK-MEL-5 melanoma): > 10 µM | TGI (SK-OV-3 ovarian): > 10 µM | TGI (SN12C renal): > 10 µM | TGI (SNB-19 CNS): > 10 µM | TGI (SNB-75 CNS): > 10 µM | TGI (SR leukemia): > 10 µM | TGI (SW-620 colon): > 10 µM | TGI (T-47D breast): > 10 µM | TGI (TK-10 renal): > 10 µM | TGI (U251 CNS): > 10 µM | TGI (UACC-257 melanoma): > 10 µM | TGI (UACC-62 melanoma): > 10 µM
